Tests used:
barnyardgrass [1] = assay: Test B pre-/postemergence herbicide test; type: in vivo, Echinochloa crus-galli
Method in brief: (§1)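 Formulation: non-phytotoxic solvent mix with surfactant. Timing: preemergence on seed and postemergence on 2–18 cm plants, applied concurrently. Readout after 13–15 d greenhouse: visual 0–100 control rating against controls.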

Surinam grass = assay: Test B pre-/postemergence herbicide test; type: in vivo, Urochloa decumbens
Method in brief: (§2)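 Flooded paddy rice and barnyardgrass were treated at the 2-leaf stage; upland plantings received compound either on sown seed or on 1- to 4-leaf seedlings. All were kept 13–15 days in a greenhouse and scored visually, 0–100, relative to untreated plants.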

cocklebur = assay: Test B pre-/postemergence herbicide test; type: in vivo, Xanthium strumarium
Method in brief: as §1

corn = assay: Test B pre-/postemergence herbicide test; type: in vivo, Zea mays
Method in brief: as §2

large crabgrass = assay: Test B pre-/postemergence herbicide test; type: in vivo, Digitaria sanguinalis
Method in brief: as §2

giant foxtail = assay: Test B pre-/postemergence herbicide test; type: in vivo, Setaria faberi
Method in brief: as §2

lambsquarters = assay: Test B pre-/postemergence herbicide test; type: in vivo, Chenopodium album
Method in brief: as §2

morningglory = assay: Test B pre-/postemergence herbicide test; type: in vivo, Ipomoea coccinea
Method in brief: as §1

pigweed = assay: Test B pre-/postemergence herbicide test; type: in vivo, Amaranthus retroflexus
Method in brief: as §2

velvetleaf = assay: Test B pre-/postemergence herbicide test; type: in vivo, Abutilon theophrasti
Method in brief: as §2

wheat = assay: Test B postemergence herbicide test; type: in vivo, Triticum aestivum; set-up: key to Wheat plant response rating: 0 = no effect, 100 = complete control
Method in brief: (§3)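 Greenhouse test; postemergence application to plants at 1–4 leaves (2–18 cm); paddy species at 2 leaves; evaluated visually vs controls at 13–15 days; scale 0–100 (100 = complete control).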

wild oat = assay: Test B postemergence herbicide test; type: in vivo, Avena fatua
Method in brief: as §3

rice = assay: Test B flooded paddy test; type: in vivo, Oryza sativa; settings: 1000 g ai/ha, scale 0 to 100 (0 no effect, 100 complete control)
Method in brief: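 After treating 2-leaf paddy plants or 2–18 cm postemergence plants (1 to 4 leaves) with formulated chemical, researchers kept them in a greenhouse for 13–15 days. Effects were judged visually versus controls: 0 indicates none, 100 total control.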

[2] = system: small flower umbrella sedge; assay: Test B flooded paddy test; type: in vivo, Cyperus difformis; settings: 1000 g ai/ha, scale 0 to 100 (0 no effect, 100 complete control)
Method in brief: (§4)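 Scale 0–100: zero equals no visible effect, 100 complete control, judged by eye relative to controls. Timing: 13 to 15 days in greenhouse post-treatment. Growth stage at spraying: two leaves (paddy) or one to four leaves, 2–18 cm (postemergence).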

barnyardgrass [3] = assay: Test B flooded paddy test; type: in vivo, Echinochloa crus-galli; settings: 1000 g ai/ha, scale 0 to 100 (0 no effect, 100 complete control)
Method in brief: as §4

[4] = 125 g ai/ha; 0 = no effect, 100 = complete control; preemergence
[5] = 500 g ai/ha; visual rating 0-100, 0 no effect, 100 complete control; preemergence
[6] = postemergence, 125 g ai/ha; visual rating, scale 0 (no effect) to 100 (complete control)
[7] = postemergence, 500 g ai/ha; visual rating, scale 0 (no effect) to 100 (complete control)
[8] = 125 g ai/ha; 0 is no effect, 100 is complete control; preemergence
[9] = 125 g ai/ha; visual rating, scale 0 (no effect) to 100 (complete control); postemergence
[10] = 500 g ai/ha; visual rating, 0 = no effect, 100 = complete control; preemergence
[11] = postemergence, 500 g ai/ha; scale 0 to 100, 0 is no effect, 100 is complete control

CCNC(=O)c1cccc(NC(=O)c2sc(C(C)(C)C)nc2C)c1 [Compound 198]
Barnyardgrass plant response rating (0 to 100 scale) (barnyardgrass [1]; [4]): 40 | Plant response rating, Barnyardgrass (barnyardgrass [1]; [5]): 90 | Barnyardgrass plant response rating (barnyardgrass [1]; [6]): 0 | Barnyardgrass plant response rating (barnyardgrass [1]; [7]): 30 | Surinam Grass plant response rating (0 to 100 scale) (Surinam grass; [4]): 10 | Plant response rating, Surinam Grass (Surinam grass; [5]): 50 | Surinam Grass plant response rating (Surinam grass; [6]): 20 | Surinam Grass plant response rating (Surinam grass; [7]): 20 | Cocklebur plant response rating (0 to 100 scale) (cocklebur; [4]): 0 | Plant response rating, Cocklebur (cocklebur; [5]): 20 | Cocklebur plant response rating (cocklebur; [6]): 60 | Cocklebur plant response rating (cocklebur; [7]): 90 | Corn plant response rating (0 to 100 scale) (corn; [4]): 0 | Plant response rating, Corn (corn; [5]): 40 | Corn plant response rating (corn; [6]): 20 | Corn plant response rating (corn; [7]): 70 | Crabgrass, Large plant response rating (0 to 100 scale) (large crabgrass; [4]): 80 | Plant response rating, Crabgrass, Large (large crabgrass; [5]): 100 | Crabgrass, Large plant response rating (large crabgrass; [6]): 10 | Crabgrass, Large plant response rating (large crabgrass; [7]): 20 | Foxtail, Giant plant response rating (0 to 100 scale) (giant foxtail; [4]): 20 | Plant response rating, Foxtail, Giant (giant foxtail; [5]): 100 | Foxtail, Giant plant response rating (giant foxtail; [6]): 20 | Foxtail, Giant plant response rating (giant foxtail; [7]): 30 | Lambsquarters plant response rating (0 to 100 scale) (lambsquarters; [4]): 100 | Plant response rating, Lambsquarters (lambsquarters; [5]): 100 | Lambsquarters plant response rating (lambsquarters; [6]): 70 | Lambsquarters plant response rating (lambsquarters; [7]): 70 | Morningglory plant response rating (0 to 100 scale) (morningglory; [4]): 10 | Plant response rating, Morningglory (morningglory; [5]): 80 | Morningglory plant response rating (morningglory; [6]): 60 | Morningglory plant response rating (morningglory; [7]): 80 | Pigweed plant response rating (0 to 100 scale) (pigweed; [4]): 90 | Plant response rating, Pigweed (pigweed; [5]): 100 | Pigweed plant response rating (pigweed; [6]): 50 | Pigweed plant response rating (pigweed; [7]): 50 | Velvetleaf plant response rating (0 to 100 scale) (velvetleaf; [4]): 0 | Plant response rating, Velvetleaf (velvetleaf; [5]): 60 | Velvetleaf plant response rating (velvetleaf; [6]): 20 | Velvetleaf plant response rating (velvetleaf; [7]): 20 | Wheat plant response rating (wheat; [6]): 0 | Wheat plant response rating (wheat; [7]): 10 | Oat, Wild plant response rating (wild oat; [6]): 20 | Oat, Wild plant response rating (wild oat; [7]): 30 | Rice plant response rating (rice; visual rating, 13 to 15 days): 20 | Sedge, Umbrella plant response rating ([2]; visual rating, 13 to 15 days): 70 | Barnyardgrass plant response rating (barnyardgrass [3]; visual rating, 13 to 15 days): 20

CCNC(=O)c1ccc(F)c(NC(=O)c2c3c(nn2CC)C(C)(C)CC3)c1 [Compound 353]
Plant response rating (0 to 100 scale), Barnyardgrass (barnyardgrass [1]; [8]): 40 | Barnyardgrass plant response rating (barnyardgrass [1]; [9]): 10 | Plant response rating, Barnyardgrass (barnyardgrass [1]; [10]): 90 | Barnyardgrass plant response rating (barnyardgrass [1]; [11]): 10 | Plant response rating (0 to 100 scale), Surinam Grass (Surinam grass; [8]): 0 | Surinam Grass plant response rating (Surinam grass; [9]): 0 | Plant response rating, Surinam Grass (Surinam grass; [10]): 30 | Surinam Grass plant response rating (Surinam grass; [11]): 10 | Plant response rating (0 to 100 scale), Cocklebur (cocklebur; [8]): 0 | Cocklebur plant response rating (cocklebur; [9]): 10 | Plant response rating, Cocklebur (cocklebur; [10]): 20 | Cocklebur plant response rating (cocklebur; [11]): 20 | Corn plant response rating (corn; [9]): 10 | Corn plant response rating (corn; [11]): 20 | Plant response rating (0 to 100 scale), Crabgrass, Large (large crabgrass; [8]): 20 | Crabgrass, Large plant response rating (large crabgrass; [9]): 10 | Plant response rating, Crabgrass, Large (large crabgrass; [10]): 80 | Crabgrass, Large plant response rating (large crabgrass; [11]): 10 | Plant response rating (0 to 100 scale), Foxtail, Giant (giant foxtail; [8]): 0 | Foxtail, Giant plant response rating (giant foxtail; [9]): 20 | Plant response rating, Foxtail, Giant (giant foxtail; [10]): 50 | Foxtail, Giant plant response rating (giant foxtail; [11]): 30 | Lambsquarters plant response rating (lambsquarters; [9]): 20 | Lambsquarters plant response rating (lambsquarters; [11]): 40 | Morningglory plant response rating (morningglory; [9]): 10 | Plant response rating, Morningglory (morningglory; [10]): 20 | Plant response rating (0 to 100 scale), Pigweed (pigweed; [8]): 0 | Pigweed plant response rating (pigweed; [9]): 30 | Pigweed plant response rating (pigweed; [11]): 70 | Plant response rating (0 to 100 scale), Velvetleaf (velvetleaf; [8]): 10 | Velvetleaf plant response rating (velvetleaf; [9]): 20 | Velvetleaf plant response rating (velvetleaf; [11]): 20 | Wheat plant response rating (wheat; [9]): 0 | Wheat plant response rating (wheat; [11]): 10 | Oat, Wild plant response rating (wild oat; [9]): 10 | Oat, Wild plant response rating (wild oat; [11]): 40 | Rice plant response rating (rice): 40 | Sedge, Umbrella plant response rating [2]: 90 | Barnyardgrass plant response rating (barnyardgrass [3]): 70

Source: US20060069132A1, “Azolecarboxamide herbicides” (priority 2004, published 2006)
